Assay results reported in patent US20230024304A1, “A MULTICOMPONENT COMPOSITION COMPRISING A COLLAGEN, RESVERATROL AND ASTAXANTHIN AND THE USE THEREOF FOR THE TREATMENT OF TENDINOPATHIES” (KOLINPHARMA S.P.A., priority 2019, published 2023).

Assays:
primary human tenocytes = assay: MTT cytotoxicity test on healthy tenocytes (individual substances and their combination); type: cell-based; details: 24 hours
Description: The model is based on the use of primary human tenocytes, obtained through isolation from Achilles tendon, purchased from Zen-Bio (TEN-F), cultured and used according to the supplier's instructions. […] Preliminary cytotoxicity studies (i.e. MTT test (3-(4,5-dimethylthiazol-2-yl)-2,5-diphenyltetrazolium bromide) and the subsequent statistical analysis) were conducted on healthy tenocytes treated with the individual substances in order to identify the doses to be used for subsequent experiments, as well as the doses to be mixed to analyse synergism. Cells were seeded in 48 well multiwells, at a density of 6000 cells/well. After 48 ore, they were treated with different concentrations of vitamin C (from 0.88 μg/mL to 352 μg/mL), collagen peptides (from 100 μg/mL to 3000 μg/mL), astaxanthin (from 1 μg/mL to 1000 μg/mL) or resveratrol (from 0.1 μg/mL to 100 μg/mL) for 24 hours. The range of concentrations selected for each substance was determined based on the data reported in literature. The MTT test was conducted at the end of the treatment. […] The formazan deposits in the cells were then solubilised with isopropanol, obtaining a homogeneous solution whose absorbance can thus be measured at the spectrophotometer (absorbance at 510 nm). […]

NF-kB and PI-3K = details: human tenocytes; dose and time-dependent manner; cited from earlier work

Structure (SMILES)	toxicity / cell viability (MTT test) (primary human tenocytes; at the tested doses (collagen 100-3000 μg/mL, astaxanthin 1-1000 μg/mL), results not reported in detail)	effect on cell viability (MTT test) (primary human tenocytes; resveratrol 50 and 100 μg/ml)	IL-1β-induced activation of NF-kB and PI-3K (NF-kB and PI-3K)
CC1=C(/C=C/C(C)=C/C=C/C(C)=C/C=C/C=C(C)/C=C/C=C(C)/C=C/C2=C(C)C(=O)[C@@H](O)CC2(C)C)C(C)(C)C[C@H](O)C1=O [astaxanthin]	devoid of toxicity	–	–
Oc1ccc(/C=C/c2cc(O)cc(O)c2)cc1 [resveratrol, 5-[(E)-2-(4-hydroxyphenyl)ethenyl]benzene-1,3-diol]	–	negative effect on cell viability	capable of suppressing IL-1β-induced activation of NF-kB and PI-3K
